One assay concerns CD11b. In words: Human whole blood CD11b up-regulation assay. Format: cell-based. The conditions noted are these: 2 nM human C5a, CD15+ granulocytes, read-out: hCD11b IC50. The procedure, abridged:
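Flow cytometric read-out: CD11b median fluorescence intensity of CD15+ granulocytes, 10,000 events. Stimulus was 2 nM human C5a for 15 min at room temperature, following 10 min compound exposure in 1% DMSO in fresh sodium-heparin whole blood; staining done on ice and erythrocytes lysed.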

The next assay addresses human C5aR (Homo sapiens (Human), UniProt P21730). In words: FLIPR assay: inhibition of C5a-mediated calcium mobilization. The class given is cell-based. The conditions noted are these: stable cell line over expressing human C5aR & Gα15, human C5a at EC50 (0.1-0.25 nM). The procedure, abridged:
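Compounds were added for 30 minutes at room temperature (1% DMSO) ahead of C5a stimulation. Before this, cells were dye-loaded for 1 h at 37° C: calcium 5 with 2.5 mM probenecid in HBSS, 20 mM HEPES, 0.1% BSA. Cells co-express human C5aR and Gα15; read-out is FLIPR Tetra calcium flux.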

Where two headings read alike, the source gives them in different places.

Chain of human C5aR (P21730 whole entry): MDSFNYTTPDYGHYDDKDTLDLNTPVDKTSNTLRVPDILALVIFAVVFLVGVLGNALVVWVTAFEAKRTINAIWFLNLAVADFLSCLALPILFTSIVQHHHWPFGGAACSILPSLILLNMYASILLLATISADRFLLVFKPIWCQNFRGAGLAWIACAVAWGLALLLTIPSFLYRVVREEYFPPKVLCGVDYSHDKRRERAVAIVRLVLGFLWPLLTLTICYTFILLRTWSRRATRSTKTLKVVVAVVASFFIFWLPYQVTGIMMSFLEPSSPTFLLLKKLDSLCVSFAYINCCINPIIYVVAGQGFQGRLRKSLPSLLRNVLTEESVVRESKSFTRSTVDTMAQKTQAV

As usually defined, the IC50 is the concentration needed to halve the response being measured. In the case of `Cc1ccc(F)cc1N1CCc2nc(-c3cccc4[nH]cc(C)c34)nc(N3CCN(CC(N)=O)[C@H](C)C3)c2C1` [Example 24-E, (R)-2-(4-(6-(5-fluoro-2-methylphenyl)-2-(3-methyl-1H-indol-4-yl)-5,6,7,8-tetrahydropyrido[4,3-d]pyrimidin-4-yl)-2-methylpiperazin-1-yl)acetamide], the half-inhibitory concentration (IC50) turned out to be 385 nM with CD11b (Homo sapiens) and 75 nM at human C5aR.

On to `CO[C@H]1C[C@H]2CC[C@@H](C1)N2c1nc(-c2cccc3[nH]cc(C)c23)nc2c1CN(c1cc(C(C)C)ccc1C)CC2` [Example 17-AS, 6-(5-isopropyl-2-methylphenyl)-4-((3-endo)-3-methoxy-8-azabicyclo[3.2.1]octan-8-yl)-2-(3-methyl-1H-indol-4-yl)-5,6,7,8-tetrahydropyrido[4,3-d]pyrimidine], for which the 50% inhibitory concentration (IC50) with CD11b (Homo sapiens) was determined as 67 nM; on human C5aR, 46 nM.

Regarding `CCn1nc(C2CC2)c(Cl)c1N1CCc2nc(-c3c(C)ccc4[nH]nc(C)c34)nc(N3CCOC[C@H]3C)c2C1` [Example 70-G, (R)-4-(6-(4-Chloro-3-cyclopropyl-1-ethyl-1H-pyrazol-5-yl)-2-(3,5-dimethyl-1H-indazol-4-yl)-5,6,7,8-tetrahydropyrido[4,3-d]pyrimidin-4-yl)-3-methylmorpholine], the concentration for half-maximal inhibition (IC50) in the assay with CD11b (Homo sapiens) was 19 nM; at human C5aR it was 9 nM.

As for `Cc1ccc(C(C)C)cc1N1CCc2nc(-c3cccc4[nH]cc(C)c34)nc(N3C[C@H](C)N(CC(N)=O)C[C@H]3C)c2C1` (racemic) [Example 28-D, Racemic-2-(4-(6-(5-Isopropyl-2-methylphenyl)-2-(3-methyl-1H-indol-4-yl)-5,6,7,8-tetrahydropyrido[4,3-d]pyrimidin-4-yl)-(trans)-2,5-dimethylpiperazin-1-yl)acetamide], the IC50 came to 58 nM with CD11b (Homo sapiens) and 4 nM at human C5aR.

As to `Cc1ccc2[nH]nc(C)c2c1-c1nc2c(c(N3CCOC[C@H]3C)n1)CN(c1c(Cl)c(C3CC3)nn1C)CC2` [Example 70-J], the figures for the IC50 in the assay with CD11b (Homo sapiens) and on human C5aR were 39 nM and 12 nM, respectively.

`CO[C@H]1CN(c2nc(-c3c(C)ccc4[nH]nc(C)c34)nc3c2CN(c2cc(C(C)C)ccc2C)CC3)C[C@@H]1N(C)C` (single isomer, unassigned) [Example 65-H, (trans)-1-(2-(3,5-dimethyl-1H-indazol-4-yl)-6-(5-isopropyl-2-methylphenyl)-5,6,7,8-tetrahydropyrido[4,3-d]pyrimidin-4-yl)-4-methoxy-N,N-dimethylpyrrolidin-3-amine]: the concentration for half-maximal inhibition (IC50) came out at 56 nM in the assay with CD11b (Homo sapiens) and 4 nM on human C5aR.

As for `Cc1cc(-c2c(C(C)C)ccc3[nH]ncc23)nc2c1CN(c1c(Cl)c(C3CC3)nn1C)CC2` [Example 46-B, 6-(4-Chloro-3-cyclopropyl-1-methyl-1H-pyrazol-5-yl)-2-(5-isopropyl-1H-indazol-4-yl)-4-methyl-5,6,7,8-tetrahydro-1,6-naphthyridine], the half-maximal inhibitory concentration (IC50) was 224 nM with CD11b (Homo sapiens) and 42 nM at human C5aR.

As for `CO[C@H]1CCN(c2nc(-c3c(C)ccc4[nH]nc(C)c34)nc3c2CN(c2c(Cl)c(C4CC4)nn2C)CC3)CC1(C)C` [Example 55-L, (S)-6-(4-Chloro-3-cyclopropyl-1-methyl-1H-pyrazol-5-yl)-2-(3,5-dimethyl-1H-indazol-4-yl)-4-(4-methoxy-3,3-dimethylpiperidin-1-yl)-5,6,7,8-tetrahydropyrido[4,3-d]pyrimidine], the half-inhibitory concentration (IC50) in the assay with CD11b (Homo sapiens) turned out to be 36 nM; on human C5aR, 3 nM.

As to `Cc1ccc(C(C)C)cc1N1CCc2nc(-c3c(C)cccc3C)nc(N3C[C@H](C)N(CC(N)=O)C[C@H]3C)c2C1` [Example 28-B], the concentration for half-maximal inhibition (IC50) turned out to be 107 nM in the assay with CD11b and 3 nM at human C5aR.

Regarding `CO[C@H]1CCN(c2nc(-c3c(C(C)C)ccc4[nH]ncc34)nc3c2CN(c2cc(C(C)C)nn2C)CC3)CC1(C)C` [Example 23-F, (S)-6-(3-isopropyl-1-methyl-1H-pyrazol-5-yl)-2-(5-isopropyl-1H-indazol-4-yl)-4-(4-methoxy-3,3-dimethylpiperidin-1-yl)-5,6,7,8-tetrahydropyrido[4,3-d]pyrimidine], the 50% inhibitory concentration (IC50) was determined as 28 nM in the assay with CD11b (Homo sapiens) and 5 nM on human C5aR.
